We go through 32 compounds from patent US20260132129A1 (Genesis Therapeutics, Inc., priority 2022, published 2026).

The test deals with T1, PI3Kα H1047R (T47D cells) (Homo sapiens, UniProt P42336, H1047R).
T1 construct: endogenous in cells; host or cells: T47D cells
In words: PI3Kα cellular assay: pAKT HTRF in T47D cells after EGF stimulation. Type of test: cell-based. As to conditions: for IC50: T47D cells (PI3Kα H1047R), pAKT S473 HTRF, 1 hr compound, 20 ng/ml EGF 10 min. As to the method:
SKBR3 or T47D cells are seeded in DMEM containing 10% FBS at 25k cells/well into 96-well cell culture format. Cells are incubated overnight at 37° C. in a 5% CO2 incubator and the following day cell media is aspirated, adherent cells are washed 1× with room temperature PBS prior to serum-free media application. Cells are returned to 37° C. 5% CO2 incubator and incubated a further 16 hrs. Compounds are added to serum starved adherent cells with a top dose of 10,000 nM and 3× multiple dose reductions for a minimum dose of 0.5 nM diluted in DMSO. Cell/compound incubation continues for 1 hr in a 37° C., 5% CO2 incubator prior to 10 minute PIK3CA stimulation with 20 ng/ml EGF. Cells treated with 0.1% DMSO and 20 ng/mL EGF are employed as negative control, cells treated with 10 uM Alpelisib and 20 ng/mL EGF are employed as a positive control. After 10 mins, plates are removed from incubator and cells are lysed with buffer and shaking 45 minutes. […] 384 well plate is left overnight at room temperature before reading HTRF on an Envision plate reader.
ND denotes value not determined with that assay for the specified compound; • for T47D (H1047R) selectivity over SKBR3 (WT): A denotes >20-fold; B denotes 20-fold≥value>5-fold; C denotes ≤5-fold. ND denotes value not determined with that assay for the specified compound; and • for T47D pAKT lipophilic efficiency (LiPE): A denotes >4; B denotes 4≥value>2; C denotes ≤2. ND denotes value not determined with that assay for the specified compound.

For orientation: IC50 means the midpoint of a concentration-inhibition curve. Low values mean inhibition by little substance, high ones a need for much substance.

T1 sequence (P42336 whole entry H1047R): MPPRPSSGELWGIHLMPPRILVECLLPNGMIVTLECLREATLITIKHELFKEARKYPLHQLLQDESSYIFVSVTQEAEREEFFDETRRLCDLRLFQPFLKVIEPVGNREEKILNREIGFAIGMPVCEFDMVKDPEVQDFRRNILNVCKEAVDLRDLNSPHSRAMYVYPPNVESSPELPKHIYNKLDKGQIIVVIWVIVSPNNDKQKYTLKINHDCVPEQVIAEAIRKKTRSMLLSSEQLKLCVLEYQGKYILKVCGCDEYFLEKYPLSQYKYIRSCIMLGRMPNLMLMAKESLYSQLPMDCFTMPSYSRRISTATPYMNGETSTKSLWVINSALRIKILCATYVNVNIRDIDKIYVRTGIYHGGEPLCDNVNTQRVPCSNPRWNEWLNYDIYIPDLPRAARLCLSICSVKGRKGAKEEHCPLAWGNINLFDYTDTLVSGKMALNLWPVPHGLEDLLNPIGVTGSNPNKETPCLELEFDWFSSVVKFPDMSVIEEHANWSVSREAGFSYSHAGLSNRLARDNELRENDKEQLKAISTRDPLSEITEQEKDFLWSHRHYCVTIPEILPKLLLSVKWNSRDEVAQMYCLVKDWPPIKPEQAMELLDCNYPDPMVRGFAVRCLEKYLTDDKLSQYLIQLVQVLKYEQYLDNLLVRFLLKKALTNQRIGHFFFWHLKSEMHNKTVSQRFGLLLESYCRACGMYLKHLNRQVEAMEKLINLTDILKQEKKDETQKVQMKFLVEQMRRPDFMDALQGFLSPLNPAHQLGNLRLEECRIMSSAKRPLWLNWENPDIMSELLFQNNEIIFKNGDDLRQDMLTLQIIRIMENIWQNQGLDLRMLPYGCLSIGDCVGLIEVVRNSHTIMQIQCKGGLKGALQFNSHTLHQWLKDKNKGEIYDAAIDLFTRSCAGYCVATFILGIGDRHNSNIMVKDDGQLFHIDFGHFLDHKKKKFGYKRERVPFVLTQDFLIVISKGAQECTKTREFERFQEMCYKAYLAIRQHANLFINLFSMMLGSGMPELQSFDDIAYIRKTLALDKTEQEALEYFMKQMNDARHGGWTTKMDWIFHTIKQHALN
T1 sequence (P27986 whole entry partner): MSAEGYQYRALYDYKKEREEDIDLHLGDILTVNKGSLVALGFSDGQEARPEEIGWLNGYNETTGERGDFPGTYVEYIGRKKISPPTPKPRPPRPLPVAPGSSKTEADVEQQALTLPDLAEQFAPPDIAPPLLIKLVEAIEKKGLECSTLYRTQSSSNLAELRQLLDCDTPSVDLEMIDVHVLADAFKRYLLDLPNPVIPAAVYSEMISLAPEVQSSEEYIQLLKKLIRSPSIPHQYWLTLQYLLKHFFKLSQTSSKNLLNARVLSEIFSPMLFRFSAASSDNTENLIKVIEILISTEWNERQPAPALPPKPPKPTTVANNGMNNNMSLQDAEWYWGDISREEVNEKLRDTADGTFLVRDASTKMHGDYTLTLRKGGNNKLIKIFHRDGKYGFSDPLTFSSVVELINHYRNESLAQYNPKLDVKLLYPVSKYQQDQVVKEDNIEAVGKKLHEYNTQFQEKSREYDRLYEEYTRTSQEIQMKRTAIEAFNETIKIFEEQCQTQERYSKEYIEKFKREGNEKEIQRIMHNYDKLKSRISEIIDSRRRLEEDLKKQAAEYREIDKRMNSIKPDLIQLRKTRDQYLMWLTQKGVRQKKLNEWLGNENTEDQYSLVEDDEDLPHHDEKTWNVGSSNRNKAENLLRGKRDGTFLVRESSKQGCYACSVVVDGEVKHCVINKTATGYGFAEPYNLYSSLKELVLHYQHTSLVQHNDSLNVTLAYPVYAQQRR

Regarding `Cc1cc([C@H](C)Nc2ccccc2C(N)=O)c2nc(N3CCOCC3)cc(=O)n2c1` [Compound 147], the IC50 lay in the range of 0.5 to 2 µM and the “T47D pAKT S473 HTRF IC50 (H1047R): T47D (H1047R) selectivity over SKBR3 (WT)” value was “B (B denotes 20-fold≥value>5-fold)”.

For `CCc1cc([C@@H](C)Nc2ccccc2C(=O)O)c2nc(N3CCOCC3)cc(=O)n2c1` [Compound 149], the IC50 was above 2 µM and the “T47D pAKT S473 HTRF IC50 (H1047R): T47D (H1047R) selectivity over SKBR3 (WT)” value is “C (C denotes ≤5-fold)”.

For `Cc1cc(C(C)Nc2ccccc2S(N)(=O)=O)c2nc(N3CCOCC3)cc(=O)n2c1` (stereo not shown) [Compound 151], the “T47D pAKT S473 HTRF IC50 (H1047R): T47D (H1047R) selectivity over SKBR3 (WT)” value is listed as “C (C denotes ≤5-fold)”.

Turning to `Cc1cc([C@H](C)Nc2ccccc2S(N)(=O)=O)c2nc(N3CCOCC3)cc(=O)n2c1` [Compound 152], the IC50 is 0.5 to 2 µM and the “T47D pAKT S473 HTRF IC50 (H1047R): T47D (H1047R) selectivity over SKBR3 (WT)” value is “B (B denotes 20-fold≥value>5-fold)”.

As to `Cc1cc(C(C)Nc2ccccc2C)c2nc(N3CCOCC3)cc(=O)n2c1` (stereo not shown) [Compound 154], the IC50 is above 2 µM and the “T47D pAKT S473 HTRF IC50 (H1047R): T47D (H1047R) selectivity over SKBR3 (WT)” value is listed as “C (C denotes ≤5-fold)”.

As for `Cc1cc([C@@H](C)Nc2ccccc2C(=O)NS(C)(=O)=O)c2nc(N3CCOCC3)cc(=O)n2c1` [Compound 155], the IC50 is above 2 µM and the “T47D pAKT S473 HTRF IC50 (H1047R): T47D (H1047R) selectivity over SKBR3 (WT)” value was “C (C denotes ≤5-fold)”.

For `Cc1cc([C@@H](C)Nc2ccccc2CC(=O)O)c2nc(N3CCOCC3)cc(=O)n2c1` [Compound 157], the IC50 is above 2 µM and the “T47D pAKT S473 HTRF IC50 (H1047R): T47D (H1047R) selectivity over SKBR3 (WT)” value was “C (C denotes ≤5-fold)”.

As for `Cc1cc([C@H](C)Nc2ccccc2CC(=O)O)c2nc(N3CCOCC3)cc(=O)n2c1` [Compound 158], the concentration for half-maximal inhibition (IC50) was above 2 µM and the “T47D pAKT S473 HTRF IC50 (H1047R): T47D (H1047R) selectivity over SKBR3 (WT)” value was “C (C denotes ≤5-fold)”.

For the compound `Cc1cc([C@H](C)Nc2ccccc2S(C)(=O)=O)c2nc(N3CCOCC3)cc(=O)n2c1` [Compound 160], the IC50 was above 2 µM and the “T47D pAKT S473 HTRF IC50 (H1047R): T47D (H1047R) selectivity over SKBR3 (WT)” value is listed as “C (C denotes ≤5-fold)”.

For the compound `Cc1cc([C@@H](C)Nc2ccccc2C(=O)O)c2nc(C)cc(=O)n2c1` [Compound 178], the “T47D pAKT S473 HTRF IC50 (H1047R): T47D (H1047R) selectivity over SKBR3 (WT)” value was “C (C denotes ≤5-fold)”.

`Cc1cc(C(C)Nc2cnccc2C(=O)O)c2nc(N3CCOCC3)cc(=O)n2c1` (stereo not shown) [Compound 194]: the IC50 is above 2 µM and the “T47D pAKT S473 HTRF IC50 (H1047R): T47D (H1047R) selectivity over SKBR3 (WT)” value is recorded as “C (C denotes ≤5-fold)”.

For `CCN1CCN(Cc2ccccc2-c2cc(=O)n3cc(C)cc(C(C)Nc4ccccc4C(=O)O)c3n2)CC1` (stereo not shown) [Compound 229], the IC50 is above 2 µM and the “T47D pAKT S473 HTRF IC50 (H1047R): T47D (H1047R) selectivity over SKBR3 (WT)” value was “C (C denotes ≤5-fold)”.

Regarding `Cc1cc(C(C)Nc2ccccc2C(=O)O)c2nc(N3CCSCC3)cc(=O)n2c1` (stereo not shown) [Compound 239], the IC50 was above 2 µM and the “T47D pAKT S473 HTRF IC50 (H1047R): T47D (H1047R) selectivity over SKBR3 (WT)” value is “C (C denotes ≤5-fold)”.

`Cc1cc(C(C)Nc2ccccc2C(=O)O)c2nc(N3CCSCC3)cc(=O)n2c1` (stereo not shown) [Compound 240]: the half-inhibitory concentration (IC50) is below 0.1 µM and the “T47D pAKT S473 HTRF IC50 (H1047R): T47D (H1047R) selectivity over SKBR3 (WT)” value is listed as “A (A denotes >20-fold)”.

As to `Cc1cc([C@@H](C)Nc2ccccc2C)c2nc(N3CCOCC3)cc(=O)n2c1` [Compound 248], the IC50 is below 0.1 µM and the “T47D pAKT S473 HTRF IC50 (H1047R): T47D (H1047R) selectivity over SKBR3 (WT)” value is listed as “C (C denotes ≤5-fold)”.

Take `Cc1cc([C@H](C)Nc2ccccc2C)c2nc(N3CCOCC3)cc(=O)n2c1` [Compound 249]: the IC50 lay within 0.5 to 2 µM and the “T47D pAKT S473 HTRF IC50 (H1047R): T47D (H1047R) selectivity over SKBR3 (WT)” value is “C (C denotes ≤5-fold)”.

`Cc1cc([C@H](C)Nc2ccccc2)c2nc(-c3cc(C)c4oc(=O)[nH]c4c3)cc(=O)n2c1` [Compound 252]: the IC50 was above 2 µM and the “T47D pAKT S473 HTRF IC50 (H1047R): T47D (H1047R) selectivity over SKBR3 (WT)” value is “C (C denotes ≤5-fold)”.

Consider `Cc1cc([C@H](C)Nc2ccccc2)c2nc(-c3cc(F)c4c(N)n[nH]c4c3)cc(=O)n2c1` [Compound 258], for which the IC50 is above 2 µM and the “T47D pAKT S473 HTRF IC50 (H1047R): T47D (H1047R) selectivity over SKBR3 (WT)” value is “C (C denotes ≤5-fold)”.

As to `Cc1cc([C@@H](C)Nc2cc(F)cc(F)c2)c2nc(N3CCOCC3)cc(=O)n2c1` [Compound 263], the IC50 is 0.5 to 2 µM and the “T47D pAKT S473 HTRF IC50 (H1047R): T47D (H1047R) selectivity over SKBR3 (WT)” value is recorded as “C (C denotes ≤5-fold)”.

In the case of `Cc1cc([C@H](C)Nc2cc(F)cc(F)c2)c2nc(N3CCOCC3)cc(=O)n2c1` [Compound 264], the IC50 was above 2 µM and the “T47D pAKT S473 HTRF IC50 (H1047R): T47D (H1047R) selectivity over SKBR3 (WT)” value is “C (C denotes ≤5-fold)”.

Turning to `Cc1cc(C(C)Nc2ccccc2)c2nc(-c3cnc4[nH]nc(-c5ccccc5)c4c3)cc(=O)n2c1` (stereo not shown) [Compound 265], the IC50 is above 2 µM and the “T47D pAKT S473 HTRF IC50 (H1047R): T47D (H1047R) selectivity over SKBR3 (WT)” value is recorded as “C (C denotes ≤5-fold)”.

`Cc1cc([C@H](C)Nc2ccccc2)c2nc(-c3cnc4[nH]nc(-c5ccccc5)c4c3)cc(=O)n2c1` [Compound 266]: the IC50 is above 2 µM and the “T47D pAKT S473 HTRF IC50 (H1047R): T47D (H1047R) selectivity over SKBR3 (WT)” value is recorded as “C (C denotes ≤5-fold)”.

Consider `Cc1cc(C(C)Nc2ccccc2C(=O)O)c2nc(-c3ccncc3)cc(=O)n2c1` (stereo not shown) [Compound 267], for which the IC50 lay in the range of 0.1 to 0.5 µM and the “T47D pAKT S473 HTRF IC50 (H1047R): T47D (H1047R) selectivity over SKBR3 (WT)” value is listed as “A (A denotes >20-fold)”.

Regarding `CC(Nc1ccccc1C(=O)O)c1cc(C#N)cn2c(=O)cc(N3CCOCC3)nc12` (stereo not shown) [Compound 273], the IC50 is above 2 µM and the “T47D pAKT S473 HTRF IC50 (H1047R): T47D (H1047R) selectivity over SKBR3 (WT)” value is “C (C denotes ≤5-fold)”.

Turning to `CC(Nc1ccccc1C(=O)O)c1cc(C(N)=O)cn2c(=O)cc(N3CCOCC3)nc12` (stereo not shown) [Compound 276], the IC50 is below 0.1 µM and the “T47D pAKT S473 HTRF IC50 (H1047R): T47D (H1047R) selectivity over SKBR3 (WT)” value is recorded as “C (C denotes ≤5-fold)”.

As to `Cc1cc(C(C)Nc2ccccc2)c2nc(-c3ccc(N4CC(C)(C)C4)c(C#N)c3)cc(=O)n2c1` (stereo not shown) [Compound 280], the “T47D pAKT S473 HTRF IC50 (H1047R): T47D (H1047R) selectivity over SKBR3 (WT)” value is reported as “C (C denotes ≤5-fold)”.

For `Cc1cc(C(C)NC2=C(CC(=O)O)C=CCC2)c2nc(N3CCSCC3)cc(=O)n2c1` (stereo not shown) [Compound 284], the 50% inhibitory concentration (IC50) is above 2 µM and the “T47D pAKT S473 HTRF IC50 (H1047R): T47D (H1047R) selectivity over SKBR3 (WT)” value is given as “C (C denotes ≤5-fold)”.

With `Cc1cc([C@@H](C)NC2=C(CC(=O)O)C=CCC2)c2nc(N3CCSCC3)cc(=O)n2c1` [Compound 285], the IC50 was above 2 µM and the “T47D pAKT S473 HTRF IC50 (H1047R): T47D (H1047R) selectivity over SKBR3 (WT)” value was “C (C denotes ≤5-fold)”.

For the compound `Cc1cc([C@H](C)Nc2ccccc2CC(=O)O)c2nc(N3CCSCC3)cc(=O)n2c1` [Compound 286], the IC50 was above 2 µM and the “T47D pAKT S473 HTRF IC50 (H1047R): T47D (H1047R) selectivity over SKBR3 (WT)” value was “C (C denotes ≤5-fold)”.

In the case of `Cc1cc(C(C)Nc2cccc(F)c2C(=O)O)c2nc(N3CCOCC3)cc(=O)n2c1` (stereo not shown) [Compound 287], the IC50 is above 2 µM and the “T47D pAKT S473 HTRF IC50 (H1047R): T47D (H1047R) selectivity over SKBR3 (WT)” value is reported as “C (C denotes ≤5-fold)”.

For `Cc1cc(C(C)Nc2ccc(F)cc2C(=O)O)c2nc(N3CCOCC3)cc(=O)n2c1` (stereo not shown) [Compound 288], the 50% inhibitory concentration (IC50) lay in the range of 0.5 to 2 µM and the “T47D pAKT S473 HTRF IC50 (H1047R): T47D (H1047R) selectivity over SKBR3 (WT)” value was “B (B denotes 20-fold≥value>5-fold)”.

Regarding `Cc1cc(C(C)Nc2cc(F)ccc2C(=O)O)c2nc(N3CCOCC3)cc(=O)n2c1` (stereo not shown) [Compound 289], the IC50 was in the range of 0.1 to 0.5 µM and the “T47D pAKT S473 HTRF IC50 (H1047R): T47D (H1047R) selectivity over SKBR3 (WT)” value is given as “C (C denotes ≤5-fold)”.
